{"source": "ChEMBL document CHEMBL5505950", "about": "“An updated review of chemical compounds with anti-Toxoplasma gondii activity” (Eur J Med Chem, 2023)", "key": {"[1]": {"experiment": "Inhibition of recombinant Toxoplasma gondii Farnesyl pyrophosphate synthase"}, "Toxoplasma gondii [2]": {"tested_on": "Toxoplasma gondii", "experiment": "Antiparasitic activity against Toxoplasma gondii tachyzoites infected in hTRET cells assessed as parasitic growth inhibition", "type": "functional, organism-based"}, "Toxoplasma gondii [3]": {"tested_on": "Toxoplasma gondii", "experiment": "Antiparasitic activity against Toxoplasma gondii tachyzoites infected in hTRET cells assessed as reduction in parasitic growth", "type": "functional", "conditions": "read-out: ED50 (the source's name)"}, "[4]": {"experiment": "Inhibition of Toxoplasma gondii Farnesyl pyrophosphate synthase"}, "[5]": {"experiment": "Inhibition of Toxoplasma gondii Heptaprenyl Diphosphate Synthase Coq1 expressed in Escherichia coli BL21"}, "Toxoplasma gondii [6]": {"tested_on": "Toxoplasma gondii", "experiment": "Antiparasitic activity against Toxoplasma gondii RH tachyzoites infected in human HFF cells assessed as parasitic growth inhibition", "type": "functional", "conditions": "time 72 hrs, read-out: ED50 (the source's name)"}, "[7]": {"target": "T1, Bifunctional dihydrofolate reductase-thymidylate synthase (Toxoplasma gondii, UniProt Q07422)", "T1 sequence (Q07422 whole entry)": "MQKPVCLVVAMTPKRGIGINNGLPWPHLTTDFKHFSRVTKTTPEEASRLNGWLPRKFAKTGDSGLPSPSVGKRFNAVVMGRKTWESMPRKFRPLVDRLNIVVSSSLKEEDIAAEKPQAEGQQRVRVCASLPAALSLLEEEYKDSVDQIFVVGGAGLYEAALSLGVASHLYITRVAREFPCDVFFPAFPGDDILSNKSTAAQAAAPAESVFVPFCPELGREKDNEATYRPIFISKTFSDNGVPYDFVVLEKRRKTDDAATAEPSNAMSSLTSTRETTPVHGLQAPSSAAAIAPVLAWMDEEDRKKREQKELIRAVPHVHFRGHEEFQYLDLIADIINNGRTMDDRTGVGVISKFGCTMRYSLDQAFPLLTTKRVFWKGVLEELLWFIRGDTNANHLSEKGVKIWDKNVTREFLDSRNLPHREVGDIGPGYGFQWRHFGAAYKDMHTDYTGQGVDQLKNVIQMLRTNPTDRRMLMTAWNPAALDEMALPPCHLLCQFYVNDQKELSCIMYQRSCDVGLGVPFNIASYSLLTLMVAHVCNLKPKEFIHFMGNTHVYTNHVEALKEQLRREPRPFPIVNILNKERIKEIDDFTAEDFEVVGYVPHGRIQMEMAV", "experiment": "Inhibition of Toxoplasma gondii Dihydrofolate reductase"}, "Toxoplasma gondii [8]": {"tested_on": "Toxoplasma gondii", "experiment": "Antiparasitic activity against Toxoplasma gondii EGS infected in human HFF cells", "type": "functional", "conditions": "read-out: ED50 (the source's name)"}, "Toxoplasma gondii [9]": {"tested_on": "Toxoplasma gondii", "experiment": "Antiparasitic activity against Toxoplasma gondii assessed as parasitic growth inhibition", "type": "functional, organism-based"}}, "note": "pEC50, pIC50: −log10 of the molar value."}
{"smiles": "CCCCCCCCCCS(=O)(=O)CC(P(=O)(O)O)P(=O)(O)O", "values": [{"measurement": "pIC50", "setting": "[1]", "value": 6.57}, {"measurement": "pEC50", "setting": "Toxoplasma gondii [2]", "value": 6.96}]}
{"smiles": "C[C@@H](COC(=O)NCCCn1c(=O)n(C)c2ccccc21)N(Cc1ccccc1)Cc1ccccc1", "values": [{"measurement": "pEC50", "setting": "Toxoplasma gondii [3]", "value": 6.42}]}
{"smiles": "CCCCCCCCCC(O)(P(=O)(O)O)P(=O)(O)O", "values": [{"measurement": "pEC50", "setting": "Toxoplasma gondii [3]", "value": 6.07}, {"measurement": "pIC50", "setting": "[4]", "value": 6.89}, {"measurement": "pIC50", "setting": "[5]", "value": 5.67}]}
{"smiles": "O=C1C(O)=C([C@H]2CC[C@H](c3ccc(Cl)cc3)CC2)C(=O)c2ccccc21", "note": "[ATOVAQUONE]", "values": [{"measurement": "pEC50", "setting": "Toxoplasma gondii [6]", "value": 6.74}]}
{"smiles": "COC(=O)/C=C1/S/C(=N/N=C(C)\\C=N\\O)NC1=O", "values": [{"measurement": "pEC50", "setting": "Toxoplasma gondii [3]", "value": 6.31}]}
{"smiles": "O=C(NC1CC1)c1ccc(N2CCC(Cc3ccccc3)CC2)nc1", "values": [{"measurement": "pEC50", "setting": "Toxoplasma gondii [6]", "value": 5.55}]}
{"smiles": "CCCCCCCCCCSCC(P(=O)(O)O)P(=O)(O)O", "values": [{"measurement": "pIC50", "setting": "[1]", "value": 7.68}, {"measurement": "pEC50", "setting": "Toxoplasma gondii [2]", "value": 5.74}]}
{"smiles": "CCc1sc2nc(N)[nH]c(=O)c2c1Sc1ccc(Br)cc1", "values": [{"measurement": "pIC50", "setting": "[7]", "value": 8.00}]}
{"smiles": "O=C(OCCOCc1ccccc1)N1CCC(n2c(=O)[nH]c3ccccc32)CC1", "values": [{"measurement": "pEC50", "setting": "Toxoplasma gondii [3]", "value": 6.30}]}
{"smiles": "COc1ccc(C#Cc2cccc(C(=O)O)c2)cc1Cc1cnc2nc(N)nc(N)c2c1OC", "values": [{"measurement": "pIC50", "setting": "[7]", "value": 8.30}]}
{"smiles": "CO/C=C(\\C(=O)OC)c1ccccc1Oc1cc(Oc2ccccc2C#N)ncn1", "note": "[Azoxystrobin]", "values": [{"measurement": "pEC50", "setting": "Toxoplasma gondii [6]", "value": 5.15}]}
{"smiles": "Cc1c(NC(=O)c2ccc(C(C)(C)C)cc2)cccc1-c1cn(C)c(=O)c(Nc2ccc(C(=O)N3CCOCC3)cc2)n1", "values": [{"measurement": "pEC50", "setting": "Toxoplasma gondii [6]", "value": 4.84}]}
{"smiles": "CCOc1ccc2cc(-c3nn(C(C)(C)C)c(N)c3C(N)=O)cnc2c1", "values": [{"measurement": "pEC50", "setting": "Toxoplasma gondii [6]", "value": 5.56}]}
{"smiles": "O=C(CCCCCCC(=O)Nc1ccccc1)NO", "note": "[VORINOSTAT]", "values": [{"measurement": "pEC50", "setting": "Toxoplasma gondii [8]", "value": 7.15}]}
{"smiles": "CCC(=O)CCCCC[C@@H]1NC(=O)[C@H]2C[C@H](C)CN2C(=O)[C@H](Cc2ccccc2)NC(=O)[C@](C)(CC)NC1=O", "values": [{"measurement": "pEC50", "setting": "Toxoplasma gondii [6]", "value": 7.96}]}
{"smiles": "CCc1sc2nc(N)[nH]c(=O)c2c1Sc1ccc(C(=O)N[C@@H](CCC(=O)O)C(=O)O)cc1", "values": [{"measurement": "pIC50", "setting": "[7]", "value": 8.70}]}
{"smiles": "C[C@@H](COC(=O)N1CCC(n2c(=O)n(C)c3ccccc32)CC1)N(Cc1ccccc1)Cc1ccccc1", "values": [{"measurement": "pEC50", "setting": "Toxoplasma gondii [3]", "value": 6.70}]}
{"smiles": "CO/N=C(\\C(=O)OC)c1ccccc1CO/N=C(\\C)c1cccc(C(F)(F)F)c1", "values": [{"measurement": "pEC50", "setting": "Toxoplasma gondii [6]", "value": 6.30}]}
{"smiles": "CCCCCCCSCC(P(=O)(O)O)P(=O)(O)O", "values": [{"measurement": "pIC50", "setting": "[1]", "value": 7.16}, {"measurement": "pEC50", "setting": "Toxoplasma gondii [2]", "value": 6.01}]}
{"smiles": "CCc1sc2nc(N)[nH]c(=O)c2c1Sc1ccc([N+](=O)[O-])cc1", "values": [{"measurement": "pIC50", "setting": "[7]", "value": 8.10}]}
{"smiles": "CNc1[nH]c(Nc2ccc(C(=O)N3CCOCC3)cc2OC)nc2ncc(Cl)c1-2", "values": [{"measurement": "pEC50", "setting": "Toxoplasma gondii [6]", "value": 5.23}]}
{"smiles": "N#C[Se]CCOc1ccc(Oc2ccccc2)cc1", "values": [{"measurement": "pEC50", "setting": "Toxoplasma gondii [9]", "value": 5.43}]}
{"smiles": "CCCCCCC[S+]([O-])CC(P(=O)(O)O)P(=O)(O)O", "note": "(stereo unspecified)", "values": [{"measurement": "pIC50", "setting": "[1]", "value": 8.05}, {"measurement": "pEC50", "setting": "Toxoplasma gondii [2]", "value": 5.30}]}
{"smiles": "N#CSCCOc1ccc(Oc2ccccc2)cc1", "values": [{"measurement": "pEC50", "setting": "Toxoplasma gondii [9]", "value": 5.32}]}
{"smiles": "O=P(O)(O)C(CSCCOc1cccc(Oc2ccccc2)c1)P(=O)(O)O", "values": [{"measurement": "pEC50", "setting": "Toxoplasma gondii [2]", "value": 6.17}]}
{"smiles": "COc1ccc(CCCCCCC(=O)O)cc1Cc1cnc2nc(N)nc(N)c2c1OC", "values": [{"measurement": "pIC50", "setting": "[7]", "value": 8.52}]}
{"smiles": "N#C[Se]CCOc1cccc(Oc2ccccc2)c1", "values": [{"measurement": "pEC50", "setting": "Toxoplasma gondii [9]", "value": 5.54}]}
{"smiles": "COC(=O)/C=C1/S/C(=N/N=C\\c2ccccc2O)NC1=O", "values": [{"measurement": "pEC50", "setting": "Toxoplasma gondii [3]", "value": 6.18}]}
{"smiles": "CCc1sc2nc(N)[nH]c(=O)c2c1Sc1ccc2ccccc2c1", "values": [{"measurement": "pIC50", "setting": "[7]", "value": 8.10}]}
{"smiles": "CC[C@]1(C)NC(=O)[C@H](CCCCCC(=O)[C@@H](C)OC(C)=O)NC(=O)[C@H]2C[C@H](C)CN2C(=O)[C@H](Cc2ccccc2)NC1=O", "values": [{"measurement": "pEC50", "setting": "Toxoplasma gondii [6]", "value": 9.00}]}
{"smiles": "CCCCCCCNCC(P(=O)(O)O)P(=O)(O)O", "values": [{"measurement": "pEC50", "setting": "Toxoplasma gondii [2]", "value": "< 5.00"}]}
{"smiles": "OCCOCCN1CCN(C(c2ccccc2)c2ccc(Cl)cc2)CC1", "note": "(stereo unspecified) [HYDROXYZINE]", "values": [{"measurement": "pEC50", "setting": "Toxoplasma gondii [6]", "value": 5.60}]}
{"smiles": "COC(=O)/C=C1/S/C(=N/N=C(/C)c2ccccn2)NC1=O", "values": [{"measurement": "pEC50", "setting": "Toxoplasma gondii [3]", "value": 6.70}]}
{"smiles": "Cc1coc2c1C(=O)C(=O)c1c-2ccc2c1CCCC2(C)C", "note": "[TANSHINONE IIA]", "values": [{"measurement": "pEC50", "setting": "Toxoplasma gondii [6]", "value": 6.00}]}
{"smiles": "CC(C)(C)C1CCC(CC2C(=O)C(=O)c3ccccc3C2O)CC1", "note": "(stereo unspecified)", "values": [{"measurement": "pEC50", "setting": "Toxoplasma gondii [6]", "value": 5.93}]}
